Reference: US12570650B2, “6-substituted pyridazine compounds as SMARCA2 and/or SMARCA4 degraders” (Aurigene Oncology Limited, priority 2020, dated 2026)

Columns and labels:
SMARCA4 = molecular target: T1, SMARCA4 (Homo sapiens, UniProt P51532); assay: SMARCA4 degradation in VCaP cells by Western blot; type: cell-based; settings: 16 hours
T1 construct: Determination of SMARCA2 and SMARCA4 Degradation in VCaP Cells by Western Blot; endogenous in cells; host or cells: VCaP (ATCC CRL-2876)
Description: On the third day, compounds of present invention were added to cells from 10 mM stocks made in DMSO (Sigma Cat no. D2650). Each concentration of compound was tested with DMSO not exceeding final percentage of 0.3 in the cells. […] Equal amount of protein was loaded on SDS PAGE gel for electrophoresis. […] Percentage of SMARCA2 or SMARCA4 degradation was calculated using formula % Degradation=100−(normalized band intensity in treated sample/normalized band intensity in DMSO sample)*100.

SMARCA2 = molecular target: T2, SMARCA2 (Homo sapiens, UniProt P51531); assay: SMARCA2 degradation in VCaP cells by Western blot; type: cell-based; settings: 16 hours
T2 construct: Determination of SMARCA2 and SMARCA4 Degradation in VCaP Cells by Western Blot; endogenous in cells; host or cells: VCaP (ATCC CRL-2876)
Description: Example-P2: Determination of SMARCA2 and SMARCA4 Degradation in VCaP Cells by Western Blot
VCaP (ATCC CRL-2876) was plated in 6 well plates using complete Dulbecco's Modified Eagle's Medium. On the third day, compounds of present invention were added to cells from 10 mM stocks made in DMSO (Sigma Cat no. D2650). Each concentration of compound was tested with DMSO not exceeding final percentage of 0.3 in the cells. Cells were incubated with the compound for 16 hours followed by harvesting with 1×RIPA lysis buffer (Thermo Fischer, catalogue number #89900) containing protease inhibitor cocktail (Sigma catalogue number #P-8340). Equal amount of protein was loaded on SDS PAGE gel for electrophoresis. Western blot was carried out for detection of either SMARCA2 (Cell signalling technologies, catalogue number #11966) or SMARCA4 antibody (Cell signalling technologies, catalogue number #52251). Beta-Tubulin antibody (Cell signalling technologies, catalogue number #86298) was used as loading control. Percentage of SMARCA2 or SMARCA4 degradation was calculated using formula % Degradation=100−(normalized band intensity in treated sample/normalized band intensity in DMSO sample)*100.

T1 sequence (P51532 whole entry): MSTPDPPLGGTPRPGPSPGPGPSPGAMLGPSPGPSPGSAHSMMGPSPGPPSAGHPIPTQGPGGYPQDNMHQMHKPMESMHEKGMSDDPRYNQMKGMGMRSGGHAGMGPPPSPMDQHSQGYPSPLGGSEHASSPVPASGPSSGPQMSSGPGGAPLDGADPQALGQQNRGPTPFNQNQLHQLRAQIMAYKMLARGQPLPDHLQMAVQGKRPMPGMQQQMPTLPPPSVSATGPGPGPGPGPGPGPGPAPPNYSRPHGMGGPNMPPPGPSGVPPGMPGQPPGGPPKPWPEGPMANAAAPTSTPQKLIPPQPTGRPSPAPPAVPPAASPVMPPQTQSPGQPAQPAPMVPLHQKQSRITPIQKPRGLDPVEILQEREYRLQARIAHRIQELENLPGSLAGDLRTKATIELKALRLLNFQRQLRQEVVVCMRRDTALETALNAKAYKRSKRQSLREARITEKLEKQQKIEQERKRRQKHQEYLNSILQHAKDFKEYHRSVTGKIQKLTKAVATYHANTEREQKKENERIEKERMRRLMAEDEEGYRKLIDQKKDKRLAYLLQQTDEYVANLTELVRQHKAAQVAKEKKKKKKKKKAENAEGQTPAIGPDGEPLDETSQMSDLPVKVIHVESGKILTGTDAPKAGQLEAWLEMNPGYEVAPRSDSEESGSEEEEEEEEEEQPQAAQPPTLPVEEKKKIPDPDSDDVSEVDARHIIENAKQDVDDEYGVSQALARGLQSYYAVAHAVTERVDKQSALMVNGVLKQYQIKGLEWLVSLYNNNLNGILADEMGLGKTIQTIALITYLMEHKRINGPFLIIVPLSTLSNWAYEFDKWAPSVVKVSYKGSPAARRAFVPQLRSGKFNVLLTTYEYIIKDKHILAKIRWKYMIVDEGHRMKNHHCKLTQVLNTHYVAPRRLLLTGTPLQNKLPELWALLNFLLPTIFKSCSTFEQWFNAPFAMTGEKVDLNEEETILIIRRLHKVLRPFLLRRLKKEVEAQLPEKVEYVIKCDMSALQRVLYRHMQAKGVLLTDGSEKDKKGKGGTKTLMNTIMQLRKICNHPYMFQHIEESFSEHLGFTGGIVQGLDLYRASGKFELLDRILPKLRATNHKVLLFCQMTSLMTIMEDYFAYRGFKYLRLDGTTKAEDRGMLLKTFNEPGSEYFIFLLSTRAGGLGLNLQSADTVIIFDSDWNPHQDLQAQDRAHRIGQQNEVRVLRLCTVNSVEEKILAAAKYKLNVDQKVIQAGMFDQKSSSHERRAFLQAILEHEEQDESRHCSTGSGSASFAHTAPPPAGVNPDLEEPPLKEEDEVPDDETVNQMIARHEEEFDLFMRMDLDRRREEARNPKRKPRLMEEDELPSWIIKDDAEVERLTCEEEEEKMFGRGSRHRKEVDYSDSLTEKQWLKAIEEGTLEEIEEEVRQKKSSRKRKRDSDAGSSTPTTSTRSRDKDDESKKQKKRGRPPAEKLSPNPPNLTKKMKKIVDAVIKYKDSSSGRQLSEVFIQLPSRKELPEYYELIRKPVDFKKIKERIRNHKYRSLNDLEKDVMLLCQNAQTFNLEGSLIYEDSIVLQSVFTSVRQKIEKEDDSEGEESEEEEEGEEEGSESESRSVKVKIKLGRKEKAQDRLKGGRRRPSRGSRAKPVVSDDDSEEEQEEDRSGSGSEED
T2 sequence (P51531 whole entry): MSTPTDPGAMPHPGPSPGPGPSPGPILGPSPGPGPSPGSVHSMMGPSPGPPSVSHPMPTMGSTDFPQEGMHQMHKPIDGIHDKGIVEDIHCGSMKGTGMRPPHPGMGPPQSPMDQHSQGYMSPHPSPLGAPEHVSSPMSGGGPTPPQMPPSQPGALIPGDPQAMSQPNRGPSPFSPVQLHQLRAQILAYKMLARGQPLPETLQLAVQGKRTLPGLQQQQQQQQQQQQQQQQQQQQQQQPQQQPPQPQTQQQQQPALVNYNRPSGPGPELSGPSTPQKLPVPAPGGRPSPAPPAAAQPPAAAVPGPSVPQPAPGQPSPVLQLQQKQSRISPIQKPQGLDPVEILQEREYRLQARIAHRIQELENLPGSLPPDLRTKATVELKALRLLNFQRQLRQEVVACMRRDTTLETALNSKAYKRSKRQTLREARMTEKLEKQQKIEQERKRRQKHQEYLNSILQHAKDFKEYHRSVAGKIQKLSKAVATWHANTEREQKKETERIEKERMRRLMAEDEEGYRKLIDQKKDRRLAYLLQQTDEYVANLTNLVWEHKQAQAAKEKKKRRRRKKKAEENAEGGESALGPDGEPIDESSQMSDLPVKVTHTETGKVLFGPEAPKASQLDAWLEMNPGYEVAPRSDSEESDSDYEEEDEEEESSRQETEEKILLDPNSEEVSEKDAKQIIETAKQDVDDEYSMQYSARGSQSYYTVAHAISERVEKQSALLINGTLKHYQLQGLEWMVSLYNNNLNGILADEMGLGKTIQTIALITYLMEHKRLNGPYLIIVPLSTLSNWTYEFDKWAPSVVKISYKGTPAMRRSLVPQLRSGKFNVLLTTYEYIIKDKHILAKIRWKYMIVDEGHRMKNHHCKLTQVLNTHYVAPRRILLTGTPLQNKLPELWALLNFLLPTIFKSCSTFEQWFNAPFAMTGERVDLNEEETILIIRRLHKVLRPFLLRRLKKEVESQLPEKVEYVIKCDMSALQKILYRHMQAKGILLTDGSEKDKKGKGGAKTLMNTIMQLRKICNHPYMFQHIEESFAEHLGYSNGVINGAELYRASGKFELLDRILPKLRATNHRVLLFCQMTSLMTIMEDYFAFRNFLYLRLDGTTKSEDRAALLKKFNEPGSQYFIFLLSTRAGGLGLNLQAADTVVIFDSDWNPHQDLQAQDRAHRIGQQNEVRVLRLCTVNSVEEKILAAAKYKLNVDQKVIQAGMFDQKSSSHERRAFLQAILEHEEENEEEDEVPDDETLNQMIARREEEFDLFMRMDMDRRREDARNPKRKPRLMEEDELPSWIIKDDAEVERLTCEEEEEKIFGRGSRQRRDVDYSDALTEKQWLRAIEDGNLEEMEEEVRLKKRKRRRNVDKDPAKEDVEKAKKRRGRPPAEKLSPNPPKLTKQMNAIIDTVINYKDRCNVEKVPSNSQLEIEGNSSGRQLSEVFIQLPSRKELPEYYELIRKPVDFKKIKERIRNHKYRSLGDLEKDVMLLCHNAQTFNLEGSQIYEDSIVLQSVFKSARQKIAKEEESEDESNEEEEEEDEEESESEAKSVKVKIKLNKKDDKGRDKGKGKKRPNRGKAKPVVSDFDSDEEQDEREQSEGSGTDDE

Percent degradation (at 100 nM) SMARCA4 (SMARCA4) [%]	Percent degradation (at 100 nM) SMARCA2 (SMARCA2) [%]	SMILES
47	20	Cc1ncsc1-c1ccc([C@H](C)NC(=O)[C@@H]2C[C@@H](O)CN2C(=O)[C@@H](NC(=O)CN2CCN(c3ccc(-c4cnnc(Cl)c4)cc3)CC2)C(C)(C)C)cc1 [Compound 3, (2S,4R)-1-((S)-2-(2-(4-(4-(6-chloropyridazin-4-yl)phenyl)piperazin-1-yl)acetamido)-3,3-dimethylbutanoyl)-4-hydroxy-N-((S)-1-(4-(4-methylthiazol-5-yl)phenyl)ethyl)pyrrolidine-2-carboxamide]
0	81	Cc1ncsc1-c1ccc([C@H](C)NC(=O)[C@@H]2C[C@@H](O)CN2C(=O)[C@@H](NC(=O)CN2CCN(c3ccc(-c4cnnc(-c5cc(F)ccc5O)c4)cc3)CC2)C(C)(C)C)cc1 [Compound 4, (2S,4R)-1-((S)-2-(2-(4-(4-(6-(5-fluoro-2-hydroxyphenyl)pyridazin-4-yl)phenyl)piperazin-1-yl)acetamido)-3,3-dimethylbutanoyl)-4-hydroxy-N-((S)-1-(4-(4-methylthiazol-5-yl)phenyl)ethyl)pyrrolidine-2-carboxamide]
20	84	Cc1ncsc1-c1ccc([C@H](C)NC(=O)[C@@H]2C[C@@H](O)CN2C(=O)[C@@H](NC(=O)CCN2CCN(c3ccc(-c4cnnc(-c5ccccc5O)c4)cc3)CC2)C(C)(C)C)cc1 [Compound 8, (2S,4R)-4-hydroxy-1-((S)-2-(3-(4-(4-(6-(2-hydroxyphenyl)pyridazin-4-yl)phenyl)piperazin-1-yl)propanamido)-3,3-dimethylbutanoyl)-N-((S)-1-(4-(4-methylthiazol-5-yl)phenyl)ethyl)pyrrolidine-2-carboxamide]
14	0	Cc1ncsc1-c1ccc([C@H](C)NC(=O)[C@@H]2C[C@@H](O)CN2C(=O)[C@@H](NC(=O)CN2CCN(c3ccc(-c4cnnc(-c5cnn(C)c5)c4)cc3)CC2)C(C)(C)C)cc1 [Compound 9, (2S,4R)-1-((S)-3,3-dimethyl-2-(2-(4-(4-(6-(1-methyl-1H-pyrazol-4-yl)pyridazin-4-yl)phenyl)piperazin-1-yl)acetamido)butanoyl)-4-hydroxy-N-((S)-1-(4-(4-methylthiazol-5-yl)phenyl)ethyl)pyrrolidine-2-carboxamide]
26	45	Cc1ncsc1-c1ccc([C@H](C)NC(=O)[C@@H]2C[C@@H](O)CN2C(=O)[C@@H](NC(=O)CN2CCN(c3ccc(-c4cnnc(-c5ccccc5C(F)F)c4)cc3)CC2)C(C)(C)C)cc1 [Compound 37, (2S,4R)-1-((S)-2-(2-(4-(4-(6-(2-(difluoromethyl)phenyl)pyridazin-4-yl)phenyl)piperazin-1-yl)acetamido)-3,3-dimethylbutanoyl)-4-hydroxy-N-((S)-1-(4-(4-methylthiazol-5-yl)phenyl)ethyl)pyrrolidine-2-carboxamide]
17	46	Cc1ncsc1-c1ccc([C@H](C)NC(=O)[C@@H]2C[C@@H](O)CN2C(=O)[C@@H](NC(=O)CN2CCN(c3ccc(-c4cnnc(-c5cccc6cc[nH]c56)c4)cc3)CC2)C(C)(C)C)cc1 [Compound 39, (2S,4R)-1-((S)-2-(2-(4-(4-(6-(1H-indol-7-yl)pyridazin-4-yl)phenyl)piperazin-1-yl)acetamido)-3,3-dimethylbutanoyl)-4-hydroxy-N-((S)-1-(4-(4-methylthiazol-5-yl)phenyl)ethyl)pyrrolidine-2-carboxamide]

Second part, the compound before the results:

SMILES	Percent degradation (at 100 nM) SMARCA4 (SMARCA4) [%]	Percent degradation (at 100 nM) SMARCA2 (SMARCA2) [%]
Cc1ncsc1-c1ccc([C@H](C)NC(=O)[C@@H]2C[C@@H](O)CN2C(=O)C(c2cc(-c3ccc(-c4cnnc(-c5ccccc5O)c4)cc3)no2)C(C)C)cc1 (mixture of isomers) [Compound 1, (2S,4R)-4-hydroxy-1-(2-(3-(4-(6-(2-hydroxyphenyl)pyridazin-4-yl)phenyl)isoxazol-5-yl)-3-methylbutanoyl)-N-((S)-1-(4-(4-methylthiazol-5-yl)phenyl)ethyl)pyrrolidine-2-carboxamide]	30	0
Cc1ncsc1-c1ccc([C@H](C)NC(=O)[C@@H]2C[C@@H](O)CN2C(=O)C(c2cc(OCCN(C)c3ccc(-c4cnnc(-c5ccccc5O)c4)cc3)no2)C(C)C)cc1 (mixture of isomers) [Compound 44, (2S,4R)-4-hydroxy-1-(2-(3-(2-((4-(6-(2-hydroxyphenyl)pyridazin-4-yl)phenyl)(methyl)amino)ethoxy)isoxazol-5-yl)-3-methylbutanoyl)-N-((S)-1-(4-(4-methylthiazol-5-yl)phenyl)ethyl)pyrrolidine-2-carboxamide]	6	22
Cc1ncsc1-c1ccc([C@H](C)NC(=O)[C@@H]2C[C@@H](O)CN2C(=O)[C@@H](NC(=O)C(C)N2CCN(c3ccc(-c4cnnc(-c5ccccc5O)c4)cc3)CC2)C(C)(C)C)cc1 (single isomer, unassigned) [Compound 29]	0	40
Cc1ncsc1-c1ccc([C@H](C)NC(=O)[C@@H]2C[C@@H](O)CN2C(=O)[C@@H](NC(=O)CN2CCC(Oc3ccc(-c4cnnc(-c5ccccc5O)c4)cc3)CC2)C(C)(C)C)cc1 [Compound 19, (2S,4R)-4-hydroxy-1-((S)-2-(2-(4-(4-(6-(2-hydroxyphenyl)pyridazin-4-yl)phenoxy)piperidin-1-yl)acetamido)-3,3-dimethylbutanoyl)-N-((S)-1-(4-(4-methylthiazol-5-yl)phenyl)ethyl)pyrrolidine-2-carboxamide]	0	88
Cc1ncsc1-c1ccc([C@H](C)NC(=O)[C@@H]2C[C@@H](O)CN2C(=O)[C@@H](NC(=O)CN2CCN(c3ccc(-c4cnnc(-c5ccccc5O)c4)cc3F)CC2)C(C)(C)C)cc1 [Compound 26, (2S,4R)-1-((S)-2-(2-(4-(2-fluoro-4-(6-(2-hydroxyphenyl)pyridazin-4-yl)phenyl)piperazin-1-yl)acetamido)-3,3-dimethylbutanoyl)-4-hydroxy-N-((S)-1-(4-(4-methylthiazol-5-yl)phenyl)ethyl)pyrrolidine-2-carboxamide]	0	89
Cc1ncsc1-c1ccc([C@H](C)NC(=O)[C@@H]2C[C@@H](O)CN2C(=O)[C@@H](NC(=O)CN2CCC(n3cc(-c4cnnc(-c5ccccc5O)c4)cn3)CC2)C(C)(C)C)cc1 [Compound 33, (2S,4R)-4-hydroxy-1-((S)-2-(2-(4-(4-(6-(2-hydroxyphenyl)pyridazin-4-yl)-1H-pyrazol-1-yl)piperidin-1-yl)acetamido)-3,3-dimethylbutanoyl)-N-((S)-1-(4-(4-methylthiazol-5-yl)phenyl)ethyl)pyrrolidine-2-carboxamide]	0	69
Cc1ncsc1-c1ccc([C@H](C)NC(=O)[C@@H]2C[C@@H](O)CN2C(=O)[C@@H](NC(=O)CCCCOc2ccc(-c3cnnc(-c4ccccc4O)c3)cc2)C(C)(C)C)cc1 [Compound 34, (2S,4R)-4-hydroxy-1-((S)-2-(5-(4-(6-(2-hydroxyphenyl)pyridazin-4-yl)phenoxy)pentanamido)-3,3-dimethylbutanoyl)-N-((S)-1-(4-(4-methylthiazol-5-yl)phenyl)ethyl)pyrrolidine-2-carboxamide]	58	81
